These are literature values, as cited in patent US20130316017A1, “Oral Composition for the Treatment of Acne” (priority 2012, published 2013).

The conditions of data set [1]: short-term (0-3 hours).
In another data set the test system is sebum. The settings on record: in vivo.

As to `O=C(/C=C/C=C/c1ccc2c(c1)OCO2)N1CCCCC1` [Piperine], the “short-term availability of curcumin and any other compound in the composition” value in data set [1] was “improve”.
On to `CC(C)(CO)[C@@H](O)C(=O)NCCC(=O)O` [vitamin B5], for which the reduction of sebum result in the data set on sebum was “reduce sebum”.
